Measurements: US5506204A, “Muramyl compounds for treatment of septic shock” (Peptech (UK) Limited, priority 1991, dated 1996)

Experiments:
IL-1 = assay: Example 6: IL-1 production by peritoneal macrophages in response to LPS; format: in vivo, BALB/c mice; conditions: 2 injections 12 hours apart; macrophages stimulated with LPS 25 μg/ml 24 hours; thymocyte co-stimulation bioassay; FIG. 4
Protocol: Mice (BALB/c, female) 13-14 g, 5 animals in each group, received 2 injections of MDPs, 12 hours apart. The MDPs tested were MDP, muroctasin, MDP-Thr, MDP-OBu, GMDP-LL, GMDP-Lys(St) and GMDP-A. After the last injection, peritoneal cells were collected and the induction of IL-1 secretion by peritoneal macrophages was tested.
Macrophages were collected from the peritoneal cavity of mice by lavage with Hank's balanced salt solution. After washing the cells, they were then placed in wells of flat-bottomed 96-well plates and incubated at 37° C. for 1 hour in RPMI containing 5% FCS. The plates were then washed with warm RPMI to remove non-adhering cells. LPS (25 μg/ml) was then added in fresh culture medium and the plates were further cultured for 24 hours.
Production of IL-1 by peritoneal macrophages was assayed by thymocyte co-stimulation bioassay. Thymocytes from (CBA*C57BL.6)F1 mice (106), PHA (1 μg.ml), and the tested supernatant (50 μl) were placed into the wells of flat-bottomed 96-well plates. Thymocyte proliferation rate was measured 72 hours later by the incorporation of 3H TdR (1 μCi.well) during 6 hours prior to culture termination.

TNFα = assay: Example 8: TNF induction by muramyl peptides; format: in vivo, BALB/c mice; conditions: C. parvum-primed mice, 100 μg (equimolar) IP, LPS 25 μg 18 hours later; FIG. 6
Protocol: Here, the muramyl peptides tested were prototype MDP, GMDP, GMDP-A, GMDP-OBu, GMDP-Lys(St), GMDPA-Lys(St), GMDP-Benz and Thr-MDP.
(§1) BALB/mice (6 mice/groups) were injected intraperitoneally with 1.4 mg of dead C. parvum (0.2 ml of a 7 mg/ml suspension). Mice were subsequently (2 weeks later) treated with saline, MDP (100 μg) or analogue (100 μg) in 0.5 ml saline IP. The dose of each `MDP` was adjusted so that animals received equimolar amounts. LOS (25 μg) was injected 18 hours after the injection of MDP/analogue and the mice were subsequently sacrificed and bled out. TNF was determined by standard capture ELISA assay.

Pyrogenicity = conditions: in vivo
Protocol: The expression "non pyrogenic or of low pyrogenicity" refers to a compound which induces an increase in temperature of an adult human of less than half a degree following the administration of 1 to 2 mg of the compound.
First, muramyl peptide compounds useful in the invention may be non-pyrogenic. Pyrogenicity may be simply measured by methods well known in the art.

serum TNF = assay: Example 7: LPS induction of serum TNF; format: in vivo, BALB/c mice; conditions: C. parvum-primed mice, 100 μg (equimolar) IP, LPS 25 μg 18 hours later; FIG. 5
Protocol: as §1, with “In this experiment, 4 compounds were tested and these are: MDP, GMDP-A, GMDP-OBu and GMDP. Saline was administered to control mice. BALB/c mice” for “BALB/mice”, “mice/group)” for “mice/groups)”, “suspension.).” for “suspension).”, “LPS” for “LOS”, “and” for “and the”

[1] = tested on: LPS-induced mortality in mice; assay: Example 3: LPS-induced mortality in mice; format: in vivo, BALB/c mice; conditions: i.p. twice daily 100 μg or molar equivalent per mouse for 9 days before 300 μg LPS; mortality 2 days after LPS; FIG. 1
Protocol: 25 female BALB/c mice weighing 16-18 g each were divided into 5 groups, each group containing 5 animals. Each group of mice received twice-daily doses of saline, GMDP, GMDP-OBu, MDP or GMDP-A. The compounds were administered by intra-peritoneal injection in twice-daily doses of 100 μg or the molar equivalent per mouse during a 9-day period before the injection of 300 μg LPS per mouse. […] Thus GMDP and GMDP-A would be useful in the treatment and prevention of sepsis and septic shock, whereas MDP and GMDP-OBu would not.

CCCCOC(=O)[C@@H](CCC(N)=O)NC(=O)[C@H](C)NC(=O)[C@@H](C)O[C@H]1[C@H](O)[C@@H](CO)OC(O)[C@@H]1NC(C)=O (stereo partly drawn) [MDP-OBu, N-acetylmuramyl-L-alanyl-D-glutamine-α-N-butyl ester, reference compound]
suppression of IL-1 production (IL-1): suppress the IL-1 response to LPS

N*-[N-Acetyl-D-glucosaminyl-(β1-4)-N-acetyl-muramyl-L-alanyl-γ-D-glutamyl]-N*-stearoyl-L-lysine [GMDPA-Lys(St)]
effect on LPS-induced TNFα production (TNFα): enhance LPS-induced TNF production

N*-[N-acetyl-D-glucosaminyl-(β1-4)-N-acetylmuramyl-L-alanyl-D-isoglutaminyl]-N*-stearoyl-L-lysine [GMDP-Lys(St)]
effect on LPS-induced TNFα production (TNFα): enhance LPS-induced TNF production | suppression of IL-1 production (IL-1): suppress the IL-1 response to LPS

N-acetyl-D-glucosaminyl-(β1-4)-N acetylmuramyl-L-alanyl-D-glutamine n-butyl ester [GMDP-OBu]
effect on LPS-induced TNFα production (TNFα): consistently failed to synergise with LPS

N-acetyl-D-glucosaminyl-(β1-4)-N-acetylmuramyl-L-alanyl-D-glutamicacid [GMDP-A]
pyrogenicity (Pyrogenicity): even less pyrogenic analogue | effect on LPS induction of serum TNF (serum TNF): pro-inflammatory, causing an enhancement of the TNF levels induced by LPS | effect on LPS-induced mortality [1]: antagonise the effect of LPS | suppression of IL-1 production (IL-1): suppress the IL-1 response to LPS
